Measurements reported in patent publication US10519114B2, “Peptidomimetics and methods of using the same” (The Regents of the University of Michigan, priority 2016, dated 2019).

Key:
[1] = target: T1, rat μ (C6-MOR) opioid receptor (Rattus norvegicus, UniProt P33535); assay: Stimulation of [35S]GTPγS binding, MOR; type: biochemical; details: for EC50: [35S]GTPγS binding, C6-MOR membranes, mean ± standard error; for Emax: [35S]GTPγS maximal stimulation compared with 10 μM standard DAMGO
T1 construct: expressed in transfected cells
Method in brief: (§1)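 Peptide-stimulated [35S]GTPγS (0.1 nM) binding, with 30 μM GDP, 5 mM MgCl2 and 100 mM NaCl at pH 7.4, was measured over 1 h at room temperature. Membranes came from rat MOR/DOR C6 or human KOR CHO cells. Filter-retained counts were expressed against 10 μM DAMGO, DPDPE or U69,593 respectively; maxima were fitted nonlinearly.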

[2] = target: T2, human κ (CHO-KOR) opioid receptor (Homo sapiens, UniProt P41145); assay: Radioligand binding assay, [3H]diprenorphine displacement, KOR; details: displacement of 0.2 nM [3H]diprenorphine, CHO-KOR membranes; mean ± standard error
T2 construct: expressed in transfected cells
Method in brief: (§2)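 C6-MOR/C6-DOR (rat) or CHO-KOR (human) membranes, 20 μg protein; 0.2 nM [3H]diprenorphine; 50 mM Tris-HCl pH 7.4; 1 h, RT; GF/C filtration, scintillation counting; NSB 10 μM naloxone; Ki by logistic fit, mean±SEM of ≥3 assays in duplicate.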

C57BL/6 mice = assay: Antinociception, warm water tail withdrawal assay;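 as to Antinociceptive activity: fully efficacious means no withdrawal up to the 20 s cutoff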; type: in vivo; details: mouse tail withdrawal; for Antinociceptive activity: 50° C. water bath, cutoff 20 s, ip; for Duration: duration of antinociceptive action, 50° C.
Procedure: In Vivo Pharmacology. Animals. Adult male C57BL/6 mice weighing between 20 and 30 g at 8-16 weeks old were used for the current experiments (obtained from Jackson Laboratories (Bar Harbor, Me.), Harlan (Indianapolis, Ind.), or bred in-house). Mice were group-housed and had free access to food and water at all times. Experiments were conducted in the housing room, which was maintained on a 12 h light/dark cycle (with lights on at 0700). Each mouse was used only once and experiments were conducted between 11 a.m. and 4 p.m. Studies were performed in accordance with the University of Michigan Committee on the Use and Care of Animals and the Guide for the Care and Use of Laboratory Animals (National Research Council, 2011 publication).
Antinociception. The antinociceptive effects of the compounds disclosed herein and morphine can be evaluated in the warm water tail withdrawal assay using a cumulative dosing procedure. To determine tail withdrawal latencies, each mouse was placed briefly into a plastic, cylindrical restrainer and 2-3 cm of the tail tip was placed into a water bath maintained at 50° C. The latency to withdraw the tail was recorded with a maximum cutoff time of 20 s. […] Each animal received an injection of saline (intraperitoneal, ip) and then 30 min later, the baseline withdrawal latencies were recorded and ranged between 3 and 6 s. Following baseline determinations, three increasing doses (1, 2.2, and 6.8 mg/kg) of 1(4R) were given at 30 min intervals to provide final doses of 1, 3.2, and 10 mg/kg. Thirty minutes after each injection, the tail withdrawal latency was measured as described above. To confirm that 1(4R) was acting at opioid receptors, the cumulative dose response was repeated over the doses 3.2, 10, and 32 mg/kg following a 30 min pretreatment with 1 mg/kg naltrexone (ip). To determine the time-course of antinociceptive action the tail-withdrawal test was performed at varying times following administration of morphine (10 mg/kg, ip) or 1(4R) (10 mg/kg, ip).

[3] = target: T1, rat μ (C6-MOR) opioid receptor; assay: Radioligand binding assay, [3H]diprenorphine displacement, MOR; details: displacement of 0.2 nM [3H]diprenorphine, C6-MOR membranes; mean ± standard error
Method in brief: as §2

[4] = target: T3, rat δ (C6-DOR) opioid receptor (Rattus norvegicus, UniProt P33533); assay: Radioligand binding assay, [3H]diprenorphine displacement, DOR; details: displacement of 0.2 nM [3H]diprenorphine, C6-DOR membranes; mean ± standard error
T3 construct: expressed in transfected cells
Method in brief: as §2

[5] = target: T3, rat δ (C6-DOR) opioid receptor; assay: Stimulation of [35S]GTPγS binding, DOR; type: biochemical; details: for EC50 (nm) DOR / EC50: [35S]GTPγS binding, C6-DOR membranes, mean ± standard error; for % stimulation DOR / Emax: [35S]GTPγS maximal stimulation compared with 10 μM standard DPDPE
Method in brief: as §1

[6] = target: T2, human κ (CHO-KOR) opioid receptor; assay: Stimulation of [35S]GTPγS binding, KOR; type: biochemical; details: for EC50 (nm) KOR / EC50: [35S]GTPγS binding, CHO-KOR membranes, mean ± standard error; for % stimulation KOR / Emax: [35S]GTPγS maximal stimulation compared with 10 μM standard U-69,593
Method in brief: as §1

T3 sequence (P33533 whole entry): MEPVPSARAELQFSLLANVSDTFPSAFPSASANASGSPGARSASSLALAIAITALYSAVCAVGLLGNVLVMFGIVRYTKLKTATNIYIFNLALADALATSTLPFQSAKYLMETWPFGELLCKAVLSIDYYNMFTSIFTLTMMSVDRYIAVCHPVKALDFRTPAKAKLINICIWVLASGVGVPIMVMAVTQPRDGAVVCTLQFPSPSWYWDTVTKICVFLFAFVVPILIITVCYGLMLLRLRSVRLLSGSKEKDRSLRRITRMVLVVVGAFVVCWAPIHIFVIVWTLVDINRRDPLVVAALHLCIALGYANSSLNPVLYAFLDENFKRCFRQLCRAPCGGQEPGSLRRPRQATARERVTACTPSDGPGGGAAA
T2 sequence (P41145 whole entry): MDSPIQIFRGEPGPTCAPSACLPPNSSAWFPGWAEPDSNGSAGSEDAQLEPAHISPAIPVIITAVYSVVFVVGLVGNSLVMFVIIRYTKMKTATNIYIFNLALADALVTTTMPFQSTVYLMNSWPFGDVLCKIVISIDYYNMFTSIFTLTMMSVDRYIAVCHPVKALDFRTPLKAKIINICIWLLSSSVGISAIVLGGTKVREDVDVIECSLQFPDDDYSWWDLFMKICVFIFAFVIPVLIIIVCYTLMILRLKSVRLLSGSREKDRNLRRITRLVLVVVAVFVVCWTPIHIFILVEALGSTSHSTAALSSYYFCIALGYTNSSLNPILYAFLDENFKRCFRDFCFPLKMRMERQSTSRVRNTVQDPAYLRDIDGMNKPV
T1 sequence (P33535 whole entry): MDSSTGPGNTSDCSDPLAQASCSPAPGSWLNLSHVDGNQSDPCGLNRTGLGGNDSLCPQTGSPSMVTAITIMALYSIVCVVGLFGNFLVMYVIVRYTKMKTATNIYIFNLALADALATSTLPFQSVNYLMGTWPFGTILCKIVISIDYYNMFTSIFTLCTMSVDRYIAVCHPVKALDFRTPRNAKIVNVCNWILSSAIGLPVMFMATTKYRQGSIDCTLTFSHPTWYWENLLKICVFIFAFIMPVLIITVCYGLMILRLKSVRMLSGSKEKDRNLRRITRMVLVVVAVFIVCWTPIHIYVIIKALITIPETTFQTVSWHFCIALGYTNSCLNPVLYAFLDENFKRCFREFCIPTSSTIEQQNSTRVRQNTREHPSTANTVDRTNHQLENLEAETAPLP

| SMILES | EC50 [1] [nM] | Emax [1] [%] | Ki [2] [nM] | Antinociceptive activity (C57BL/6 mice) | Ki [3] [nM] | Ki [4] [nM] | EC50 (nm) DOR [5] | % stimulation DOR [5] | EC50 [5] [nM] | Emax [5] [%] | EC50 (nm) KOR [6] | % stimulation KOR [6] | Duration (C57BL/6 mice) [min] | Emax [6] [%] | EC50 [6] [nM] |
| --- | --- | --- | --- | --- | --- | --- | --- | --- | --- | --- | --- | --- | --- | --- | --- |
| Cc1cc(O)cc(C)c1C[C@H](N)C(=O)N[C@@H]1CCNc2c(Cc3ccccc3)cc(Cc3ccccc3)cc21 [Compound 1041] | 7.25 | 73 | 13.2 | Inactive | 0.73 | 0.86 | dns | dns | – | – | – | – | – | – | – |
| CCCc1cc(Cc2ccccc2)cc2c1NCC[C@H]2NC(=O)[C@@H](N)Cc1c(C)cc(O)cc1C [Compound 1056] | 23.3 ± 6.94 | 89.5 ± 6.27 | 98.4 ± 18.2 | Inactive | 0.64 ± 0.08 | 5.89 ± 1.5 | – | – | 307 ± 28.6 | 35.7 ± 2.62 | dns | dns | – | – | – |
| Cc1cc(O)cc(C)c1C[C@H](N)C(=O)N[C@@H]1CCNc2c1cc(Cc1ccccc1)cc2C(C)(C)C [Compound 1057] | 9.87 ± 3.55 | 83.2 ± 4.6 | 64.7 ± 17.8 | Partially active | 0.91 ± 0.4 | 3.78 ± 0.66 | – | – | 238 ± 39.3 | 57.9 ± 14 | dns | dns | – | – | – |
| Cc1cc(O)cc(C)c1C[C@H](N)C(=O)N[C@@H]1CCNc2c(F)cc(Cc3ccccc3)cc21 [Compound 1090] | – | – | – | Inactive | – | – | – | – | – | – | – | – | – | – | – |
| Cc1cc(O)cc(C)c1C[C@H](N)C(=O)N[C@@H]1CCNc2c(CN3CCCCC3)cc(Cc3ccccc3)cc21 [Compound 1097] | 2.32 ± 0.21 | 93 ± 1.67 | 0.71 | Inactive | 0.07 ± 0.03 | 2.41 | – | – | – | – | – | – | – | – | – |
| Cc1cc(O)cc(C)c1C[C@H](N)C(=O)N[C@@H]1CCNc2c(C)cc(Cc3ccccc3)cc21 [Compound 1100] | – | – | 18.3 | Fully efficacious | 2.63 | 1.09 | – | – | – | – | – | – | 90 | – | – |
| CCOC(=O)c1cc(Cc2ccccc2)cc2c1NCC[C@H]2NC(=O)[C@@H](N)Cc1c(C)cc(O)cc1C [Compound 1102] | 4.91 ± 0.28 | 70.5 ± 2.61 | 48.7 | Fully efficacious | 1.01 ± 0.28 | 4.2 | dns | dns | – | – | – | – | 150 | – | – |
| Cc1cc(O)cc(C)c1C[C@H](N)C(=O)N[C@@H]1CCNc2c(C(=O)NCc3ccccc3)cc(Cc3ccccc3)cc21 [Compound 1104] | 4.18 | 79 | 29.4 | Inactive | 0.36 | 2.17 | dns | dns | – | – | – | – | – | – | – |
| Cc1cc(O)cc(C)c1C[C@H](N)C(=O)N[C@@H]1CCCc2ccccc21 [Compound 1113] | – | 3.44 ± 2.09 | 2060 ± 582 | – | 25.6 ± 10.9 | 640 ± 218 | – | – | – | -0.76 ± 0.62 | – | – | – | -1.05 | – |
| Cc1cc(O)cc(C)c1C[C@H](N)C(=O)NC1CCc2ccc(Cc3ccccc3)cc21 (stereo partly shown) [Compound 1114] | 18.3 ± 8.14 | 42.6 ± 8.65 | 143 ± 45.4 | – | 0.55 ± 0.09 | 29.9 ± 10.1 | – | – | – | 3.07 ± 1.82 | – | – | – | 3.7 ± 4.06 | 1600 |
| Cc1cc(O)cc(C)c1C[C@H](N)C(=O)N[C@@H]1CCCc2ccc(-c3cccc4ccccc34)cc21 [Compound 1115] | – | 0.34 ± 3.26 | 131 ± 42.3 | – | 5.44 ± 2.7 | 45.5 ± 26.9 | – | – | – | -2.57 ± 4.3 | – | – | – | 3.82 ± 3.2 | 200 |
| Cc1cc(O)cc(C)c1C[C@H](N)C(=O)N[C@@H]1CCCc2ccc(-c3ccc4ccccc4c3)cc21 [Compound 1116] | – | -1.1 ± 1.61 | 315.9 ± 0.91 | – | 0.24 ± 0.12 | 6.03 ± 0.2 | – | – | – | 1.75 ± 1.44 | – | – | – | 5.57 ± 8.53 | 237 |
| Cc1cc(O)cc(C)c1C[C@H](N)C(=O)N[C@@H]1CCCc2ccc(-c3ccccc3)cc21 [Compound 1117] | 9.51 ± 3.3 | 28.7 ± 2.39 | 20.9 ± 4.12 | – | 0.57 ± 0.32 | 3.99 ± 1.31 | – | – | 181 ± 28.2 | 21.2 ± 10.7 | – | – | – | 45.6 ± 1.77 | 321 ± 176 |
| Cc1cc(O)cc(C)c1C[C@H](N)C(=O)N[C@@H]1CCSc2ccc(Cc3ccccc3)cc21 [Compound 1123] | 1.92 ± 0.54 | 79.9 ± 7.51 | 48.4 ± 23.1 | – | 0.15 ± 0.04 | 4.79 ± 1.11 | dns | dns | – | – | – | – | – | 10.3 ± 5.17 | 337 ± 205 |
| Cc1cc(O)cc(C)c1C[C@H](N)C(=O)N[C@@H]1CCS(=O)(=O)c2ccc(Cc3ccccc3)cc21 [Compound 1124] | 0.72 ± 0.11 | 94.5 ± 3.04 | 27.2 ± 5.99 | – | 0.06 ± 0.01 | 2.34 ± 1.42 | – | – | 126 ± 72.5 | 45.2 ± 5.62 | – | – | – | 35.8 ± 2.15 | 721 ± 317 |
| CC(=O)N1CC[C@@H](NC(=O)[C@@H](N)Cc2c(C)cc(O)cc2C)c2cc(CC3Cc4ccccc4C3C)ccc21 (stereo partly shown) [Compound 1125] | 3.03 ± 2.32 | 69.5 ± 10.4 | 2.53 ± 1.52 | – | 0.28 ± 0.12 | 0.67 ± 0.08 | dns | dns | – | – | dns | dns | – | – | – |
| Cc1cc(O)cc(C)c1C[C@H](N)C(=O)N[C@@H]1CCNc2c(CN3CCNCC3)cc(Cc3ccccc3)cc21 [Compound 1131] | 8 | 61 | 1.9 | – | 0.35 | 22 | – | – | 280 | 17 | – | – | – | 18 | 190 |
